Values of other authors as cited in US20260069581A1, “METHODS AND COMPOSITIONS FOR CANCER THERAPY” (OHIO STATE INNOVATION FOUNDATION, priority 2020, published 2026).

Assays:
[1] = system: AML; conditions: low micromolar doses, Ref. 25; cited from earlier work
[2] = system: cell lines derived from T-cell lymphomas or leukemias; conditions: Ref. 25, cited from earlier work
[3] = system: tubulin acetylation; conditions: concentration as high as 50 μM, Ref. 25; cited from earlier work
[4] = system: prostate cancer and lung adenocarcinoma cells; conditions: Ref. 32; cited from earlier work
[5] = system: Rad51; conditions: Ref. 33; cited from earlier work

COc1ccc(Cn2ccc3ccc(C(=O)NO)cc32)cc1 [PCI-34051]
AML death [1]: failed to induce AML death | apoptosis [2]: induces caspase-dependent apoptosis | GI50 ([2]; cell lines derived from T-cell lymphomas or leukemias): 2.4 to 4 µM | tubulin acetylation [3]: did not induce significant tubulin acetylation

O=C(CCCCCCC(=O)Nc1ccccc1)NO [vorinostat]
Rad50 and MRE11 protein levels [4]: downregulates

CN(C)Cc1c(C(=O)NCCOc2ccc(C(=O)NO)cc2)oc2ccccc12 [PCI-2481]
Rad51 expression [5]: reduction of Rad51 expression
